Assay [1] concerns the target T1, PFKL(V545L, V582M) (PFKL−hook) (Homo sapiens, UniProt P17858, V545L/V582M).
T1 construct: made in house; host or cells: Sf9 insect cells (baculovirus)
T1 sequence (P17858 1-780 V545L/V582M): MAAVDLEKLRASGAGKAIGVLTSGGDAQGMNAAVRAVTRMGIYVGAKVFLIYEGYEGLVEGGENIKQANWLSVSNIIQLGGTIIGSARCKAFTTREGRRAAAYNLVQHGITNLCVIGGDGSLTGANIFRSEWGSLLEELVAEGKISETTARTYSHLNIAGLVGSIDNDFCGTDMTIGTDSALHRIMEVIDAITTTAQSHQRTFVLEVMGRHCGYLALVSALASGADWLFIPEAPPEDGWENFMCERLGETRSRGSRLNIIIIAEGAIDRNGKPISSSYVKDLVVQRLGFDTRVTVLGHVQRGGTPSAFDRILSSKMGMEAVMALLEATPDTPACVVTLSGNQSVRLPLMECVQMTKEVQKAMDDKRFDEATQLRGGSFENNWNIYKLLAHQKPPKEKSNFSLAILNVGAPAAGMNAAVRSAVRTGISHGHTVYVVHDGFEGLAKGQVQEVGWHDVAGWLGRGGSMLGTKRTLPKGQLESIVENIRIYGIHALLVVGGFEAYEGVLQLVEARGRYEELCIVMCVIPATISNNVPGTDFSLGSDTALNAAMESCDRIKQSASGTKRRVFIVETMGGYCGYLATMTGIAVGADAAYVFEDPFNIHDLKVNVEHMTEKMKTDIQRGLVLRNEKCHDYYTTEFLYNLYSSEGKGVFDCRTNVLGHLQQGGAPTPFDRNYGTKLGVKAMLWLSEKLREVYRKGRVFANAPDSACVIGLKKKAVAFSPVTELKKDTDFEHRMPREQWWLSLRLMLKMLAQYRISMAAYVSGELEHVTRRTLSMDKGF
Kind of assay: Recombinant PFKL−hook activity assay. The class given is biochemical. The following applies: for EC50: pH 7.5, 3.1 mM ATP, 2.5 mM F6P, mean ± SEM, read-out: EC50, activation of PFKL−hook. An excerpt: Recombinant N-terminal His-tagged human PFKL (NP_002617), PFKM (NP_000280), and PFKP (NM_002627.4) were generated as described ([Webb et al., 2015], [2017]). Point mutants of PFK1 were generated using the QuikChange Lightning kit (Aligent).
His-tagged PFK1 was expressed and purified as described with slight modifications ([Webb et al., 2015], [2017]). Briefly, baculovirus was generated using the Bac-to-Bac Expression system (Invitrogen). PFK1 was expressed in 2-5 × 10^6 sf9 cells at a multiplicity of infection of two for 48 h. Cells were lysed in 20 mM HEPES, pH 7.5, 80 mM potassium phosphate, 1 mM 2-mercapentoethanol, 10% glycerol, 10 mM imidazole, and EDTA-free Protease Inhibitor Cocktail (Abcam) with a Dounce homogenizer. The soluble lysate was incubated with HisPur cobalt resin (ThermoFisher Scientific). The resin was washed with 5 bead volumes lysis buffer, 10 bead volumes lysis buffer containing 2 M NaCl, and 5 further bead volumes lysis buffer. PFK1 was eluted in lysis buffer containing 100 mM imidazole. Fractions containing protein were pooled, passed over a desalting column equilibrated in freezing buffer [20 mM HEPES pH 7.5, 1 mM DTT, 500 μM ammonium sulfate, 5% glycerol, 1 mM ATP, and 100 μM EDTA] and concentrated using an Amicon Ultracel-30K Centrifugal Filter Unit (MilliporeSigma). Protein was quantified using a Bradford Protein Assay kit (ThermoFisher Scientific), and aliquotes frozen in liquid nitrogen for storage at −80°C.
PFK1 activity was determined using the rate of FBP production via an auxiliary enzyme assay adapted to a 96-well format ([Brüser et al., 2012]; [Webb et al., 2015]). The auxiliary enzymes aldolase, triosephosphate isomerase, and glycerol phosphate dehydrogenase were purchased from MilliporeSigma as ammonium sulfate slurries and desalted using an Amicon Ultracel-10K Centrifugal Filter Unit. For assays containing FBP, the rate of ADP production was determined using the auxiliary enzymes pyruvate kinase (PK) and lactate dehydrogenase (LDH) (MilliporeSigma) in a buffer containing 250 μM phosphoenolpyruvic acid, […] NADH, 50 mM HEPES pH 7.5, 100 mM KCl, 1 mM DTT, and effector concentrations as described in the text. The temperature was equilibrated to 25°C for 5 min before initiating the reaction 10 mM MgCl2. Absorbance at 340 nm was measured using a Varioskan LUX Multimode microplate reader (ThermoFisher). Kinetic parameters were generated by nonlinear regression analysis using Prism (GraphPad Software) and are the mean of a minimum of three measurements from two independent preparations of protein. One unit of activity was defined as the amount of enzyme that catalyzed the formation of 1 μmol of fructose 1,6-bisphosphate per min at 25°C. […]

The test system of assay [2] is human peripheral blood neutrophils. Kind of assay: NETosis assay in human neutrophils (SYTOX Green, DNA area). The class given is cell-based. To be noted: for inhibition of PMA-induced NETosis: SAR analogs compared to LDC7559; for fold more potent than LDC7559, inhibition of NETosis: compared to LDC7559. As to the method: Freshly purified neutrophils were plated at 6 × 10^3 cells/well in glass bottom 96-well plates (SensoPlate, Greiner Bio-One 82050-792) in the RPMI medium described above. Cells were pretreated with DMSO vehicle, 0.5 μM NA-11, 100 μM apocynin, 0.5 μM and 5 μM PALP, or 0.5 μM and 5 μM LDC7559 for 30 min, and then stimulated with 50 nM PMA, 1 μM f-MLP, 5 μg/mL cholesterol crystals, 10 μg/mL LPS, 25 μM nigericin, or 25 μM calcymicin (A23187) for 3 h (except in Figures S1A, 6A and S7C, where cells were stimulated for 4 h). Cells were fixed and permeabilized in 2.5% paraformaldehyde (PFA) and 0.02% Triton X-100 in PBS for 30 min. For quantification of NETosis, cells were stained with 150 nM SYTOX Green and imaged in a KEYENCE Fluorescence Microscope (KEYENCE, ZB-X800E) at 10 x magnification. For immunolabeling, fixed cells were blocked with 2% BSA for 1 h, and then stained with anti-CitH3 and anti-MPO antibodies at a dilution of 1/200 in 1% BSA in PBS. Images were taken at 60 x magnification using an ImageXpress Micro Confocal high-content imaging system (Molecular Devices).
Semi-automated analysis of both phase and fluorescence images of SYTOX Green-stained neutrophils used a specialized MATLAB algorithm. Total cells were counted by scoring phase standard deviation and radial symmetry. NETosis was classified in cells by measuring the DNA area in the fluorescence image and comparing with a select internal training set for each experiment. Unstimulated cells and PMA-stimulated, […] cells served as negative controls. PMA-stimulated cells served as a positive control. NET-forming cells are presented as a percentage of total cells.

Where “and” joins values, the source holds several entries; their conditions need not be identical. Equal entries are not always repeated.

This note sets out measurements from paper PMC8802628, “Selective activation of PFKL suppresses the phagocytic oxidative burst” (Cell, 2021).

For `O=C(CO)[C@@H](O)[C@H](O)[C@H](O)COP(=O)(O)O` [F6P, fructose 6-phosphate], in assay [1] (PFKL−hook, pH 7.5, 225 μM ATP), the “Vmax,F6P” value is given as 11.50 ± 0.57 micromoles FBP per minute per milligram PFK1 and the “hF6P (Hill coefficient)” value amounted to 2.87 ± 0.50.
As to `COc1ccccc1-c1cc2n(n1)Cc1ccc(NC(C)=O)cc1OC2` [LDC7559, reference compound], in assay [2] (PMA), the “inhibition of PMA-induced NETosis” value is on record as “inhibited PMA-induced NETosis in a dose-dependent manner”. In assay [2] (neutrophils), the “ability to inhibit NETosis (activity range)” value is “low-micromolar range”. In addition, the “spontaneous NETosis” value in assay [2] (no stimulus) is “did not prevent spontaneous NETosis”.
In the case of `CC(=O)Nc1ccc2c(c1)OCc1cc(-c3ccccc3)nn1C2` [NA-5], in assay [2], the “fold more potent than LDC7559, inhibition of NETosis” value is ~ 10 fold. Besides, the 50% effective concentration (EC50) (usually the midpoint of the concentration-response curve) in assay [1] was 0.0181 ± 0.00319 µM.
Turning to `CC(=O)Nc1ccc2c(c1)OCc1cc(-c3ccccc3C#CCCCO)nn1C2` [NA-11], the “NOX2-dependent NETosis induced by fMLP, LPS, and cholesterol crystals” value in assay [2] (0.5 μM, 4 h stimulation) is on record as “inhibited NOX2-dependent NETosis”. The “inhibition of PMA-induced NETosis” value in assay [2] (PMA) is on record as “inhibiting NOX2-dependent NETosis induced by PMA”. Also, in assay [2], the “fold more potent than LDC7559, inhibition of NETosis” value is ~ 1,000 fold and 1,000 fold. Besides, in assay [2] (human PMNs, PMA, read-out: IC50, inhibition of PMA-induced NETosis), the half-maximal inhibitory concentration (IC50) (usually the concentration that inhibits the measured activity by half) worked out at 0.004 ± 0.0005 µM. Besides, the EC50 in assay [1] came out at 0.0533 ± 0.00577 µM.
